Consider one compound from patent US20170281700A1, “PHAGE THERAPY FOR TARGETING ENTEROCOCCI” (priority 2014, published 2017).

The assay relates to E. faecalis V583 VRE. Format: cell-based, Enterococcus faecalis. The text has this:
The insert depicts the clot model.
E. faecalis V583 (VRE) is an example of a vancomycin resistant E. faecalis that was announced by the Centers for Disease Control (CDC) as one of the major bacterial threats today.

SMILES strings stand for the structures.

Consider `CN[C@H](CC(C)C)C(=O)N[C@H]1C(=O)N[C@@H](CC(N)=O)C(=O)N[C@H]2C(=O)N[C@H]3C(=O)N[C@H](C(=O)N[C@H](C(=O)O)c4cc(O)cc(O)c4-c4cc3ccc4O)[C@H](O)c3ccc(c(Cl)c3)Oc3cc2cc(c3O[C@@H]2O[C@H](CO)[C@@H](O)[C@H](O)[C@H]2O[C@H]2C[C@](C)(N)[C@H](O)[C@H](C)O2)Oc2ccc(cc2Cl)[C@H]1O` [vancomycin], for which the “colony growth on agar plate from seeded culture aliquots” value (24 hours incubation in 37 °C) is reported as “growth was observed”. Further, the “effect on growth and viability” value (EFLK1 2.5×10^7 phages/ml, vancomycin 15 μg/ml) is “somewhat affects its growth and viability”.
